# Results reported in patent publication US11446269B2, “Methods of reducing or preventing oxidation of small dense LDL or membrane polyunsaturated fatty acids” (Amarin Pharmaceuticals Ireland Limited, priority 2014, dated 2022).
# Values joined by “and” are separate entries in the source; they are usually repeats but may differ in a detail not shown here. Equal entries are not always repeated.
# Tests used:
# [1] = Lipid hydroperoxide (LOOH) formation in cholesterol-enriched DLPC model membranes under autoxidation (Example 3); type: biochemical; details: EPA:lipid 1:30, C/P 0.6:1, autoxidation 37° C. 72 hours, vs untreated controls
# Method: Levels of lipid hydroperoxides were also measured in cholesterol-enriched membrane prepared in the absence of EPA as a control. […] CHOD-iodide color reagent (stock) was prepared according to a procedure modified from El-Saadani et […], Goher […], Jurgens G. A spectrophotometric assay for lipid peroxides in serum lipoproteins using commercially available reagent. J. Lipid. […] Membrane samples consisting of DLPC±cholesterol were prepared as follows. Component lipids (in chloroform) were transferred to 13×100 mm test tubes and shell-dried under a steady stream of nitrogen gas while vortex mixing. The lipid was co-dried with EPA. Residual solvent was removed by drying for a minimum of 3 h under vacuum. After desiccation, each membrane sample was resuspended in diffraction buffer (0.5 mM HEPES, 154 mM NaCl, pH 7.3) to yield a final phospholipid concentration of 1.0 mg/mL. Multilamellar vesicles (MLV) were formed by vortex mixing for 3 minutes at ambient temperature. […] Absorbances were measured against a CHOD blank at 365 nm using a Beckman DU-640 spectrophotometer. The CHOD colorimetric assay is based on the oxidation of iodide (I^-) by lipid hydroperoxides (LOOH) and proceeds according to the following reaction scheme: […]3^- The quantity of triiodide anion (I3^-) liberated in this reaction is directly proportional to the amount of lipid hydroperoxides present in the membrane sample.
# human sdLDL = assay: Copper-induced sdLDL oxidation, TBARS (Example 7); type: biochemical
# Method: (§1) An experiment to study the antioxidant effect of EPA in LDL and small dense […] performed. […] Fenofibrate, gemfibrozil, and niacin were purchased from Sigma-Aldrich. […] Vitamin E was also incubated with sample aliquots as a positive control.
# unfractionated LDL = assay: Copper-induced oxidation of unfractionated LDL, TBARS (Example 7); type: biochemical, human; details: 10 μM, 1 hr
# Method: as §1
# [2] = X-ray diffraction of cholesterol domains in POPC/cholesterol model membranes, C/P 1.5:1 (Example 9); details: drug-to-phospholipid mole ratio 1:30, C/P 1.5:1
# Method: Multilamellar vesicles (MLVs) were prepared as binary mixtures that include palmitoyloleoylphosphatidylcholine (POPC) (1.0 mg total phospholipid per sample) and cholesterol at an elevated cholesterol-to-phospholipid (C/P) mole ratio of 1.5:1. […] Samples were shell-dried under nitrogen gas and placed under vacuum for 3 hours to remove residual solvent at room temperature. After desiccation, each sample was resuspended in saline buffer (0.5 mM HEPES, 154 mM NaCl, pH 7.3) to yield a final phospholipid concentration of 2.5 mg/mL. Lipid suspensions were then vortexed for 3 minutes at ambient temperature to form MLVs.
# Briefly, a 100 μL aliquot of each MLV preparation (containing 250 μg MLV) was transferred to a Lucite® sedimentation cell fitted with an aluminum foil substrate designed to collect MLVs into a single membrane pellet upon centrifugation. Samples were then loaded into a Sorvall AH-629 swinging bucket rotor (DuPont Corp., Wilmington, Del.) and centrifuged at 35,000 g, 5° C., for 90 minutes.
# After centrifugal orientation, sample supernatants were aspirated and aluminum foil substrates, each supporting a single membrane pellet, were removed from the sedimentation cells. Sample pellets were dried for 5-10 minutes at ambient conditions, mounted onto curved glass supports, and placed in hermetically-sealed, brass or glass containers (for immediate analysis or temporary storage, respectively). All x-ray diffraction experiments were conducted at 20° C., 74% relative humidity. The latter was established by exposing membrane samples to saturated solutions of […] (K2C4H4O6.½H2O) for at least 1 hour prior to experimental analysis.
# Oriented membrane samples were aligned at grazing incidence with respect to a collimated, mono-chromatic CuKα x-ray beam (Kα1 and Kα2 unresolved; λ=1.54 Å) produced by a Rigaku Rotaflex RU-200, high-brilliance microfocus generator (Rigaku-MSC, The Woodlands, Tex.) as previously described (Mason et al., Biophys. J., vol. 55(4), pages 769-778 (1989)). The samples were initially subjected to x-ray diffraction analysis at least 12 hours after formation of the membrane pellets and retested for up to several days. Analytical x-rays were generated by electron bombardment of a rotating copper anode and are filtered through a thin nickel foil to provide monochromatic radiation (λ=1.54 Å). Collimation of the x-ray beam was achieved using a single Franks mirror. […]
# The d-space for any given membrane multi bilayer is a measurement of the unit cell periodicity of the membrane lipid bilayer (e.g., the distance from the center of one lipid bilayer to the next including surface hydration), and is calculated from Bragg's Law, hλ=2d sin θ, where h is the diffraction order, λ is the wavelength of the x-ray radiation (1.54 Å), d is the membrane lipid bilayer unit cell periodicity, and θ is the Bragg angle equal to one-half the angle between the incident beam and scattered beam.
# The presence of cholesterol domains in a given membrane sample results in the production of distinct Bragg (diffraction) peaks having singular periodicity values of 34 and 17 Å (typically referred to as first- and second-order cholesterol domain peaks). Under the specific temperature and relative humidity conditions established for these experiments, the second-order, 17 Å cholesterol domain peak was well-delineated from other, neighboring cholesterol and phospholipid diffraction peaks and was thus used to quantitate relative cholesterol domain peak intensity. […]
# sdLDL = assay: Glucose-induced sdLDL oxidation, MDA/TBARS (Example 10); type: biochemical, human; details: 10.0 μM, glucose 200 mg/dL
# Method: Vitamin E (α-tocopherol) purchased from Sigma-Aldrich was prepared in ethanol at 1.0 mM (ε=3.06×10^4 M^−1 cm^−1 at 294 nm) prior to experimental use. Test compounds were further diluted in ethanol or aqueous buffer as needed. Phosphate Buffered Saline (PBS) purchased from Sigma-Aldrich was prepared in double distilled water at 10 mM (138 mM NaCl, 2.7 mM KCl, pH 7.4). […] Lipid oxidation was measured by the colorimetric detection of malondialdehyde (MDA), a marker of oxidative stress.
Compound,reduction of LOOH levels [1],"effect on sdLDL oxidation (human sdLDL; 10.0 μM, after 4 hours, vs vehicle or DHA)","inhibition of sdLDL oxidation (TBARS formation) (human sdLDL; each agent at 10 μM, 1 hr, vs vehicle, 10 µM)","inhibition of TBARS formation (unfractionated LDL; unfractionated LDL, vs vehicle) [%]",reduction in cholesterol domain peaks vs vehicle [2] [%],MDA formation (sdLDL) [µM],inhibition of sdLDL oxidation (sdLDL; vs vehicle controls) [%],"effect on sdLDL oxidation (human sdLDL; 10 μM, 1 hr, vs vehicle-treated controls)",effect on unfractionated LDL oxidation (unfractionated LDL; vs vehicle-treated controls),effect on cholesterol domains [2],effect on glucose-induced sdLDL oxidation (sdLDL)
"CC/C=C\C/C=C\C/C=C\C/C=C\C/C=C\CCCC(=O)O [EPA, cis-5,8,11,14,17-eicosapentaenoic acid]",greater than 90%,significantly inhibited sdLDL oxidation,93±2% and 92±8%,> 90,65,0.2 ± 0.1,94,–,–,–,–
"O=C(O)c1cccnc1 [Niacin, nicotinic acid]",–,–,–,–,–,–,–,no significant effect,no significant effect,no significant changes in cholesterol domain size,did not inhibit
